In data set [1] the target is T1, Stimulator of interferon genes protein (Mus musculus, UniProt Q3TBT3).
T1 sequence (Q3TBT3 whole entry): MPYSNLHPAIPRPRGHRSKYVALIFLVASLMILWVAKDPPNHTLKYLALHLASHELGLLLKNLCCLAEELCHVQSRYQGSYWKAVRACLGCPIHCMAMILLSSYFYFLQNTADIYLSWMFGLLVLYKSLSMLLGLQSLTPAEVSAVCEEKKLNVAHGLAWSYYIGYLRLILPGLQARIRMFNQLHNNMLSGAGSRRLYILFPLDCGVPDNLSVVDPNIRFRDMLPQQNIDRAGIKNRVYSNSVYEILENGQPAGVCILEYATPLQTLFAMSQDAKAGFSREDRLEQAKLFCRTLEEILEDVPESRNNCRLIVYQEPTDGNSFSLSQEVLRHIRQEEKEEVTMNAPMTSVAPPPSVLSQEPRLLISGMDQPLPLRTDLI
The experiment in a line: Inhibition of mouse STING in mouse RAW cells assessed as secreted luciferase reporter of interferon stimulated gene (ISG) measured after 24 hrs incubation by QUANTI-Luc detection assay. Format: cell-based. A general note: A reporter such as luciferase makes a cellular process visible.

The target in data set [2] is Stimulator of interferon genes protein (Homo sapiens) (UniProt Q86WV6). Put plainly: Binding affinity to Flag-tagged human STING expressed in HEK293T cells assessed as labelling pretreated for 15 mins with (E)-1-(5-(3-Cyanoprop-1-en-1-yl)-1H-indol-3-yl)-3-(2,2-difluorobenzo[d][1,3]dioxol-5-yl)urea followed by treated at 1 uM for 1 hr by TAMRA-N3 fluorescent assay. Type of data set: cell-based. The following applies: time 75.0 min.

Data set [3] has the same target. Put plainly: Binding affinity to Flag-tagged human STING expressed in HEK293T cells assessed as labelling measured after 1 hr by TAMRA-N3 fluorescent assay. Format: cell-based.
The nature of data set [4]: Half life in Sprague-Dawley rat at 1 mg/kg, iv. Format: ADME, organism-based. The following applies: in vivo.
Data set [5] in a line: MRT (0 to infinity) in Sprague-Dawley rat at 1 mg/kg, iv. Type of data set: ADME, organism-based. The following applies: in vivo.
The nature of data set [6]: Volume of distribution at steady state in Sprague-Dawley rat at 1 mg/kg, iv. Format: ADME, organism-based. The following applies: in vivo.
The nature of data set [7]: AUC (0 to infinity) in Sprague-Dawley rat at 1 mg/kg, iv. Type of data set: ADME, organism-based. The following applies: in vivo.
Data set [8] concerns Mus musculus. Put plainly: Anti-inflammatory activity against MSA-2 induced C57BL/6 mouse inflammation model assessed as inhibition of MSA-2 induced IL-6 mRNA expression in kidney at 10 mg/kg, ip pre-treated for 1 hr followed by stimulated with MSA-2 for 4 hrs by real-time PCR analysis. Format: functional, organism-based. The following applies: time 5.0 hrs. (In general: In qPCR the cycle at which signal appears reflects the starting amount.)

Data set [9] has as its system Mus musculus. Put plainly: Anti-inflammatory activity against MSA-2 induced C57BL/6 mouse inflammation model assessed as inhibition of MSA-2 induced IP-10 level in kidney at 10 mg/kg, ip pre-treated for 1 hr followed by stimulated with MSA-2 for 4 hrs by ELISA. Format: functional, organism-based. The following applies: time 5.0 hrs. For orientation: In an ELISA, binding on a coated surface is turned into a signal by an enzyme label.

Data set [10] relates to Mus musculus. Put plainly: Anti-inflammatory activity against MSA-2 induced C57BL/6 mouse inflammation model assessed as inhibition of MSA-2 induced TNF-alpha mRNA expression in kidney at 10 mg/kg, ip pre-treated for 1 hr followed by stimulated with MSA-2 for 4 hrs by real-time PCR analysis. The following applies: time 5.0 hrs. Format: functional, organism-based.
Data set [11] can be described thus: Metabolic stability in human liver microsomes assessed as half life. Type of data set: ADME, Microsome.
Data set [12] in a line: Clearance in Sprague-Dawley rat at 1 mg/kg, iv. Type of data set: ADME, organism-based. The following applies: in vivo.
Data set [13] concerns Mus musculus. The experiment in a line: Anti-inflammatory activity against MSA-2 induced C57BL/6 mouse inflammation model assessed as inhibition of MSA-2 induced IL-6 level in kidney at 10 mg/kg, ip pre-treated for 1 hr followed by stimulated with MSA-2 for 4 hrs by ELISA. Format: functional, organism-based. The following applies: time 5.0 hrs.
The next data set deals with HEK293. Put plainly: Protection of Cisplatin induced apoptosis in human HEK293 cells assessed as apoptotic cells at 10 uM measured after 72 hrs by flow cytometry. Format: functional, cell-based.
The nature of data set [14]: Metabolic stability in mouse liver microsomes assessed as half life. Format: ADME, Microsome.
A short description of data set [15]: Metabolic stability in human liver microsomes assessed as microsomal intrinsic clearance. Type of data set: ADME, Microsome. The following applies: read-out: CLH.
Data set [16] is described as follows: Metabolic stability in rat liver microsomes assessed as microsomal intrinsic clearance. Format: ADME, Microsome. The following applies: read-out: CLH.
Data set [17] can be described thus: Metabolic stability in rat liver microsomes assessed as liver intrinsic clearance. Format: ADME, Microsome.
The nature of data set [18]: Metabolic stability in mouse liver microsomes assessed as liver intrinsic clearance. Type of data set: ADME, Microsome.
Data set [19] in a line: Metabolic stability in mouse liver microsomes assessed as microsomal intrinsic clearance. Type of data set: ADME, Microsome. The following applies: read-out: CLH.
Data set [20] is described as follows: Metabolic stability in rat liver microsomes assessed as half life. Type of data set: ADME, Microsome.
Data set [21] concerns Mus musculus. Put plainly: Anti-inflammatory activity against MSA-2 induced C57BL/6 mouse inflammation model assessed as inhibition of MSA-2 induced Isg56 RNA expression in kidney at 10 mg/kg, ip pre-treated for 1 hr followed by stimulated with MSA-2 for 4 hrs by real-time PCR analysis. Format: functional, organism-based. The following applies: time 5.0 hrs.
Data set [22] in a line: Metabolic stability in human liver microsomes assessed as liver intrinsic clearance. Type of data set: ADME, Microsome.
Data set [23] concerns Mus musculus. Put plainly: Anti-inflammatory activity against MSA-2 induced C57BL/6 mouse inflammation model assessed as inhibition of MSA-2 induced Isg15 mRNA expression in kidney at 10 mg/kg, ip pre-treated for 1 hr followed by stimulated with MSA-2 for 4 hrs by real-time PCR analysis. Format: functional, organism-based. The following applies: time 5.0 hrs.
The test system of data set [24] is Mus musculus. The experiment in a line: Anti-inflammatory activity against MSA-2 induced C57BL/6 mouse inflammation model assessed as inhibition of MSA-2 induced IP-10 level in plasma at 10 mg/kg, ip pre-treated for 1 hr followed by stimulated with MSA-2 for 4 hrs by ELISA. Format: functional, organism-based. The following applies: time 5.0 hrs.
The test system of data set [25] is Mus musculus. The experiment in a line: Anti-inflammatory activity against MSA-2 induced C57BL/6 mouse inflammation model assessed as inhibition of MSA-2 induced IL-6 level in plasma at 10 mg/kg, ip pre-treated for 1 hr followed by stimulated with MSA-2 for 4 hrs by ELISA. The following applies: time 5.0 hrs. Type of data set: functional, organism-based.
Data set [26] has as its system Mus musculus. Put plainly: Anti-inflammatory activity against MSA-2 induced C57BL/6 mouse inflammation model assessed as inhibition of MSA-2 induced Cxcl-10 mRNA expression in kidney at 10 mg/kg, ip pre-treated for 1 hr followed by stimulated with MSA-2 for 4 hrs by real-time PCR analysis. Type of data set: functional, organism-based. The following applies: time 5.0 hrs.

Data set [27] can be described thus: Inhibition of intracellular DNA induced Ifnb mRNA expression in human IMR-90 cells measured after 6 hrs by PCR assay. The following applies: IMR-90, 6 h.

Calls of active or inactive are those of the source. The rule behind the calls is not given here.

Stimulator of interferon genes protein (Homo sapiens), sequence (Q86WV6 whole entry): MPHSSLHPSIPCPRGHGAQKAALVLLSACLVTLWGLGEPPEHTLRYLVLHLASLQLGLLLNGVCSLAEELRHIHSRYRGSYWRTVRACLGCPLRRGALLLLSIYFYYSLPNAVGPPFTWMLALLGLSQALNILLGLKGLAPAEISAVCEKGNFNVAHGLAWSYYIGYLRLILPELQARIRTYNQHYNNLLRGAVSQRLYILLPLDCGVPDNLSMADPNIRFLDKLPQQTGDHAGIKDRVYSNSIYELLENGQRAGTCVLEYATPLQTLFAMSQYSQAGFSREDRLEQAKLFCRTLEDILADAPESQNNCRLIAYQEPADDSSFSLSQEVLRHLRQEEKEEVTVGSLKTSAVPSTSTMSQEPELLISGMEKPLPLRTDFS

Take `O=C(Nc1cccc2c1OC(F)(F)O2)Nc1c[nH]c2ccccc12`: in data set [1], the IC50 (as a rule, the midpoint of a concentration-inhibition curve) was 457 nM.
Regarding `C#Cc1ccc2[nH]cc(NC(=O)Nc3ccc4c(c3)OC(F)(F)O4)c2c1`, the outcome in [2] was inactive. Besides, the Activity entry in data set [3] is “Dose-dependent-effect”. The IC50 in data set [1] amounted to 5450 nM.
Regarding `Fc1cc2[nH]cc(Nc3nc4cc(C5CCCC5)ccc4[nH]3)c2cc1F`, in data set [1], the IC50 turned out to be 305 nM.
`Fc1cnc2[nH]cc(Nc3nc4cc(C5CCCC5)ccc4[nH]3)c2c1`: in [4], the half-life (as a rule, how long it takes for the measured level to halve) was 25.8 min. Also, the MRT (in general, the average time that molecules of a dose stay in the body) in data set [5] (iv, 1 mg/kg) was determined as 16.2 min. The IC50 in data set [1] was found to be 52.3 nM. Further, in data set [6] (iv, 1 mg/kg), the Vdss (in general, the apparent volume that relates the amount in the body to the concentration in plasma or blood) worked out at 14.04 L/kg. Besides, the AUC(0-inf) (commonly total exposure, with the tail of the curve extrapolated) in data set [7] turned out to be 43.8 ng·h/mL.
Regarding `CCc1ccc(NC(=O)Nc2c[nH]c3ccccc23)cc1`, the inhibition entry with Mus musculus [8], with Mus musculus [9], in the data set on Mus musculus [10], with Mus musculus [13], in the data set on Mus musculus [21] and with Mus musculus [23] was “Active” each time. The inhibition entry with Mus musculus [24], with Mus musculus [25] and in the data set on Mus musculus [26] was “Active” each time. In addition, the half-life is 9.6 min in data set [4], 12.1 min in data set [11], 6.29 min in data set [14] and 1.02 min in data set [20]. The MRT inf (as a rule, the average time that molecules of a dose stay in the body) in data set [5] (Sprague-Dawley) is 12 min. Moreover, in data set [12], the clearance (in general, the volume of plasma or blood freed of the substance per unit of time) was determined as 144 mL/min/kg. For the same compound, the result with HEK293 was Active. The microsomal CLint in [15] was determined as 115 µL/min/mg; in [16], 1360 µL/min/mg; in [19] it was 220 µL/min/mg. Further, the CLH amounted to 2448 µL/min/mg in data set [17], 873 µL/min/mg in data set [18] and 103 µL/min/mg in [22]. Further, the Vd in data set [6] (Sprague-Dawley, read-out: Vdss) amounted to 1.94 L/kg. The same compound yielded an AUC(0-inf) in data set [7] of 116 ng·h/mL.
With `O=C(Nc1ccc2c(c1)OC(F)(F)O2)Nc1c[nH]c2ccc(Cl)cc12`, the IC50 in [1] stood at 815 nM.
The compound `CC[C@@H]1NC(=O)[C@@H]2[C@H](Cl)[C@H](Cl)CN2C(=O)[C@H](CC)NC(=O)C[C@H](c2ccccc2)NC(=O)[C@H](CO)NC1=O` had an IC50 in data set [27] of 10800 nM.
In the case of `O=C(Nc1ccc2c(c1)OC(F)(F)O2)Nc1c[nH]c2ccc(Br)cc12`, the IC50 in data set [1] was determined as 776 nM.
With `Fc1ccc2[nH]cc(Nc3nc4cc5c(cc4[nH]3)OC(F)(F)O5)c2c1`, in [1], the IC50 turned out to be 229 nM.
Same read-out and setting: the figure for `Fc1ccc2[nH]cc(Nc3nc4cc(C5CCCC5)ccc4[nH]3)c2c1` is 210 nM; for `O=C(Nc1ccc2c(c1)OC(F)(F)O2)Nc1c[nH]c2ccccc12` it is 407 nM.
